The source of these data is patent EP0231671B1, “Gonatriene derivatives and process for preparing them” (MITSUBISHI KASEI CORPORATION, priority 1985, dated 1987).

In this experiment the test system is female rats. The experiment is described as follows: Anti-gonadotropic activity: ovary weight after 14 days of oral administration, test group compared with control group. As to conditions: suspended in 10 % ethanol-containing cotton seed oil, ovary weight vs control group. The arrangement: key: -: no effective; +: effective; ++: very effective. Format: in vivo. As to the method: Each compound obtained in Examples and suspended in a 10 % ethanol-containing cotton seed oil was orally administrated to female rats in a dose of 0.1, 1 or 10 mg/kg for 14 days. While, for the control group, only the cotton seed oil was orally administrated for the same period.
After the completion of the administration, the ovary of each rat was weighted. From the comparison of the weight in the test group with that in the control group, the anti-gonadotropic activity of the gonatriene compound of this invention was evaluated.

The structures appear in SMILES notation.

In the case of `C[C@]12C=CC3=C4CCC(=O)C=C4CC[C@H]3[C@@H]1CC[C@@]2(O)CCl` [Example 1, 17α-chloromethyl-17β-hydroxy-13β-methyl-gona-4.9.11-triene-3-one], the anti-gonadotropic activity result is, setting by setting: (0.1 mg/kg for 14 days) “-”; (10 mg/kg for 14 days) “++”.
As for `C[C@]12C=CC3=C4CCC(=O)C=C4CC[C@H]3[C@@H]1CC[C@@]2(O)CC#N` [Example 2, 17α-cyanomethyl-17β-hydroxy-13β-methyl-gona-4,9,11-triene-3-one], the anti-gonadotropic activity result is, setting by setting: (0.1 mg/kg for 14 days) “-”; (1 mg/kg for 14 days) “+”; (10 mg/kg for 14 days) “++”.
As to `CC[C@]12C=CC3=C4CCC(=O)C=C4CC[C@H]3[C@@H]1CC[C@@]2(O)CC#N` [Example 3, 17α-cyanomethyl-17β-hydroxy-13β-ethyl-gona-4,9,11-triene-3-one], the anti-gonadotropic activity entry is “-” (0.1 mg/kg for 14 days), “+” (1 mg/kg for 14 days) and “++” (10 mg/kg for 14 days).
The corresponding values for `CC[C@]12C=CC3=C4CCC(=O)C=C4CC[C@H]3[C@@H]1CC[C@@]2(O)CCl` [Example 4, 17α-chloromethyl-17β-hydroxy-13β-ethyl-gona-4,9,11-triene-3-one] are “-”, “+” and “++”.
With `CC[C@]12C=CC3=C4CCC(=O)C=C4CC[C@H]3[C@@H]1CC[C@@]2(O)COC` [Example 6, 17α-methoxymethyl-17β-hydroxy-13β-ethyl-gona-4,9,11-triene-3-one], the anti-gonadotropic activity entry (10 mg/kg for 14 days) is “++”.
Regarding `CC[C@]12C=CC3=C4CCC(=O)C=C4CC[C@H]3[C@@H]1CC[C@@]2(O)CSC` [Example 7, 17α-methylthiomethyl-17β-hydroxy-13β-ethyl-aona-4.9.11-triene-3-one], the anti-gonadotropic activity result reads like this: (0.1 mg/kg for 14 days) “-”; (10 mg/kg for 14 days) “++”.
As to `CC[C@]12C=CC3=C4CCC(=O)C=C4CC[C@H]3[C@@H]1CC[C@@]2(O)CSC#N` [Example 9, 17α-thiocyanatemethyl-17β-hydroxy-13βethyl-gona-4,9,11-triene-3-one], the anti-gonadotropic activity result by setting is: (1 mg/kg for 14 days) “++”; (10 mg/kg for 14 days) “++”.
